Reference: PubChem BioAssay (NCI)
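Each compound was tested at five concentrations against cells in 96-well plates for 48 hours. TGI denotes the concentration required for complete inhibition of growth.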

How the values were obtained:
Experiment in all cases: NCI tumour cell line growth inhibition, 48 h
A498 renal = test system: A498 renal
A549 NSCLC = test system: A549 NSCLC
CAKI-1 renal = test system: CAKI-1 renal
CCRF-CEM leukemia = test system: CCRF-CEM leukemia
COLO 205 colon = test system: COLO 205 colon
DLD-1 colon = test system: DLD-1 colon
DMS 114 small cell lung = test system: DMS 114 small cell lung
DMS 273 small cell lung = test system: DMS 273 small cell lung
EKVX NSCLC = test system: EKVX NSCLC
HCC-2998 colon = test system: HCC-2998 colon
HCT-116 colon = test system: HCT-116 colon
HCT-15 colon = test system: HCT-15 colon
HL-60(TB) leukemia = test system: HL-60(TB) leukemia
HOP-18 NSCLC = test system: HOP-18 NSCLC
HOP-62 NSCLC = test system: HOP-62 NSCLC
HOP-92 NSCLC = test system: HOP-92 NSCLC
HT29 colon = test system: HT29 colon
IGROV1 ovarian = test system: IGROV1 ovarian
K-562 leukemia = test system: K-562 leukemia
KM12 colon = test system: KM12 colon
KM20L2 colon = test system: KM20L2 colon
LOX IMVI melanoma = test system: LOX IMVI melanoma
M19-MEL melanoma = test system: M19-MEL melanoma
MALME-3M melanoma = test system: MALME-3M melanoma
MCF7 breast = test system: MCF7 breast
MOLT-4 leukemia = test system: MOLT-4 leukemia
NCI-H226 lung = test system: NCI-H226 lung
NCI-H23 lung = test system: NCI-H23 lung
NCI-H460 lung = test system: NCI-H460 lung
NCI-H522 lung = test system: NCI-H522 lung
NCI/ADR-RES ovarian = test system: NCI/ADR-RES ovarian
OVCAR-3 ovarian = test system: OVCAR-3 ovarian
OVCAR-4 ovarian = test system: OVCAR-4 ovarian
OVCAR-5 ovarian = test system: OVCAR-5 ovarian
OVCAR-8 ovarian = test system: OVCAR-8 ovarian
P388 leukemia = test system: P388 leukemia
P388/ADR leukemia = test system: P388/ADR leukemia
RPMI-8226 leukemia = test system: RPMI-8226 leukemia
RXF 393 renal = test system: RXF 393 renal
SF-268 CNS = test system: SF-268 CNS
SF-295 CNS = test system: SF-295 CNS
SF-539 CNS = test system: SF-539 CNS
SK-MEL-2 melanoma = test system: SK-MEL-2 melanoma
SK-MEL-28 melanoma = test system: SK-MEL-28 melanoma
SK-MEL-5 melanoma = test system: SK-MEL-5 melanoma
SK-OV-3 ovarian = test system: SK-OV-3 ovarian
SN12C renal = test system: SN12C renal
SN12K1 renal = test system: SN12K1 renal
SNB-19 CNS = test system: SNB-19 CNS
SNB-75 CNS = test system: SNB-75 CNS
SNB-78 CNS = test system: SNB-78 CNS
SW-620 colon = test system: SW-620 colon
U251 CNS = test system: U251 CNS
UACC-257 melanoma = test system: UACC-257 melanoma
UACC-62 melanoma = test system: UACC-62 melanoma
UO-31 renal = test system: UO-31 renal
XF 498 CNS = test system: XF 498 CNS

Oc1c(CNCCCN2CCCC2)cc(Cl)c2cccnc12
TGI (A498 renal): 29.9 µM | TGI (A549 NSCLC): 11.3 µM | TGI (CAKI-1 renal): 12.5 µM | TGI (CCRF-CEM leukemia): 13.6 µM | TGI (COLO 205 colon): 15.2 µM | TGI (DLD-1 colon): 15 µM | TGI (DMS 114 small cell lung): 9.24 µM | TGI (DMS 273 small cell lung): 10.4 µM | TGI (EKVX NSCLC): 12.4 µM | TGI (HCC-2998 colon): 10.2 µM | TGI (HCT-116 colon): 12.8 µM | TGI (HCT-15 colon): 16.2 µM | TGI (HL-60(TB) leukemia): 5.91 µM | TGI (HOP-18 NSCLC): 20.6 µM | TGI (HOP-62 NSCLC): 7.24 µM | TGI (HOP-92 NSCLC): 33.7 µM | TGI (HT29 colon): 17.3 µM | TGI (IGROV1 ovarian): 20.7 µM | TGI (K-562 leukemia): 7.38 µM | TGI (KM12 colon): 28.8 µM | TGI (KM20L2 colon): 14.4 µM | TGI (LOX IMVI melanoma): 15.3 µM | TGI (M19-MEL melanoma): 9.61 µM | TGI (MALME-3M melanoma): 17.4 µM | TGI (MCF7 breast): 15.9 µM | TGI (MOLT-4 leukemia): 11.7 µM | TGI (NCI-H226 lung): 19.2 µM | TGI (NCI-H23 lung): 23.9 µM | TGI (NCI-H460 lung): 10.6 µM | TGI (NCI-H522 lung): 12.4 µM | TGI (NCI/ADR-RES ovarian): 7.68 µM | TGI (OVCAR-3 ovarian): 11.9 µM | TGI (OVCAR-4 ovarian): 16.9 µM | TGI (OVCAR-5 ovarian): 8.37 µM | TGI (OVCAR-8 ovarian): 15.7 µM | TGI (P388 leukemia): 9.18 µM | TGI (P388/ADR leukemia): 6.32 µM | TGI (RPMI-8226 leukemia): 16.3 µM | TGI (RXF 393 renal): 25.2 µM | TGI (SF-268 CNS): 18.4 µM | TGI (SF-295 CNS): 5.49 µM | TGI (SF-539 CNS): 10.1 µM | TGI (SK-MEL-2 melanoma): 26.2 µM | TGI (SK-MEL-28 melanoma): 23.6 µM | TGI (SK-MEL-5 melanoma): 5.77 µM | TGI (SK-OV-3 ovarian): 15 µM | TGI (SN12C renal): 24.6 µM | TGI (SN12K1 renal): 4.1 µM | TGI (SNB-19 CNS): > 100 µM | TGI (SNB-75 CNS): 36.3 µM | TGI (SNB-78 CNS): 33.5 µM | TGI (SW-620 colon): 17.1 µM | TGI (U251 CNS): 17 µM | TGI (UACC-257 melanoma): 24.2 µM | TGI (UACC-62 melanoma): 5.79 µM | TGI (UO-31 renal): 21.3 µM | TGI (XF 498 CNS): 15.2 µM

COc1ccc(Cc2nn(C3OC(COC(C)=O)C(OC(C)=O)C(OC(C)=O)C3OC(C)=O)c(=S)n(-c3ccc(OC)cc3)c2=O)cc1 (stereo not drawn)
TGI (A498 renal): > 100 µM | TGI (A549 NSCLC): > 100 µM | TGI (CAKI-1 renal): > 100 µM | TGI (CCRF-CEM leukemia): > 100 µM | TGI (COLO 205 colon): > 100 µM | TGI (DLD-1 colon): > 100 µM | TGI (DMS 273 small cell lung): > 100 µM | TGI (EKVX NSCLC): > 100 µM | TGI (HCC-2998 colon): > 100 µM | TGI (HCT-116 colon): > 100 µM | TGI (HCT-15 colon): > 100 µM | TGI (HL-60(TB) leukemia): > 100 µM | TGI (HOP-18 NSCLC): > 100 µM | TGI (HOP-62 NSCLC): > 100 µM | TGI (HOP-92 NSCLC): > 100 µM | TGI (HT29 colon): > 100 µM | TGI (IGROV1 ovarian): > 100 µM | TGI (K-562 leukemia): > 100 µM | TGI (KM12 colon): > 100 µM | TGI (KM20L2 colon): > 100 µM | TGI (LOX IMVI melanoma): > 100 µM | TGI (M19-MEL melanoma): > 100 µM | TGI (MALME-3M melanoma): > 100 µM | TGI (MCF7 breast): > 100 µM | TGI (MOLT-4 leukemia): > 100 µM | TGI (NCI-H226 lung): > 100 µM | TGI (NCI-H23 lung): > 100 µM | TGI (NCI-H460 lung): > 100 µM | TGI (NCI-H522 lung): > 100 µM | TGI (NCI/ADR-RES ovarian): > 100 µM | TGI (OVCAR-3 ovarian): > 100 µM | TGI (OVCAR-4 ovarian): > 100 µM | TGI (OVCAR-5 ovarian): > 100 µM | TGI (OVCAR-8 ovarian): > 100 µM | TGI (P388 leukemia): > 100 µM | TGI (P388/ADR leukemia): > 100 µM | TGI (RPMI-8226 leukemia): > 100 µM | TGI (RXF 393 renal): > 100 µM | TGI (SF-268 CNS): > 100 µM | TGI (SF-295 CNS): > 100 µM | TGI (SF-539 CNS): > 100 µM | TGI (SK-MEL-2 melanoma): > 100 µM | TGI (SK-MEL-28 melanoma): > 100 µM | TGI (SK-MEL-5 melanoma): > 100 µM | TGI (SK-OV-3 ovarian): > 100 µM | TGI (SN12C renal): > 100 µM | TGI (SN12K1 renal): > 100 µM | TGI (SNB-19 CNS): > 100 µM | TGI (SNB-75 CNS): > 92.2 µM | TGI (SNB-78 CNS): > 100 µM | TGI (SW-620 colon): > 100 µM | TGI (U251 CNS): > 100 µM | TGI (UACC-257 melanoma): > 100 µM | TGI (UACC-62 melanoma): > 100 µM | TGI (UO-31 renal): > 100 µM | TGI (XF 498 CNS): > 100 µM
